Measurements taken from patent US20250072423A1, “THIOPHENE ACETIC ACID FOR PLANT GROWTH REGULATION” (priority 2023, published 2025).

Tests used:
[1] = tested on: tomato cotyledon explants; experiment: Shoot regeneration from tomato cotyledon explants with 1 mg/L BAP (Experiment 3); assay type: cell-based, tomato cultivar Roma VF
Description: The sterilized seeds were germinated on half-strength Murashige and Skoog (MS) medium in vitro. Cotyledons from 10-day old seedlings before first true leaves emerged were used as starting explants in all the experiments. The base and tip of the cotyledons were excised and the explants were transferred with the abaxial surface in contact with the culture medium. The basic culture medium consists of MS medium with vitamins supplemented with 30 g/L sucrose and gelled with 0.8% agar, and the pH of the medium was adjusted to 5.8±0.2. […] All experiments were conducted with at least three replicates of 10 explants each.
To analyse the effects on shoot regeneration, the basic media was supplemented with 1 mg/L BAP and different concentrations of TAA, IAA, NAA, IBA and 2,4 D (0.05, 0.1, 0.5, 1.0 and 2.0 mg/L) individually. Since there are no previous reports on suitable concentration ranges for TAA in tomato regeneration, concentrations at 50.0, 100.0, 200.0 and 300.0 mg/L were analysed additionally for TAA.

[2] = tested on: AtIAA5 (AT1G15580); experiment: qRT-PCR of early auxin-responsive gene AtIAA5 (Experiment 9); assay type: in vivo, A. thaliana; conditions: 5 and 10 μM TAA
Protocol: (§1) To analyze TAA responsive genes in Arabidopsis, WT Arabidopsis seeds were germinated as described and 14-day-old uniform-looking seedlings were initially acclimatized in liquid germination medium for 2 hours before transferring to medium containing different concentrations of TAA (5 and 10 μM). Seedlings in media supplemented with DMSO were used as control. Five random seedlings were selected and considered as one sample and three samples from both control and treatments were flash frozen in liquid nitrogen and total RNA was isolated using a TRIzol reagent (ThermoFisher Scientific, Cat #15596026).
(§2) Expression levels of seven previously reported early auxin-responsive genes were verified by qRT-PCR (quantitative reverse transcription polymerase chain reaction). RNA reverse transcription was performed using QuantiTect Reverse Transcription Kit (Qiagen). Three biological replicates and three technical replicates were used for all qRT-PCRs. Arabidopsis actin gene (AT3G18780) was used as internal reference.

[3] = tested on: tomato cotyledon explants; experiment: Root regeneration from tomato cotyledon explants in vitro (Experiment 2); assay type: cell-based, tomato cultivar Roma VF; conditions: 0.05 and 0.1 mg/L
Protocol: Seeds of tomato cultivar Roma VF were sterilized by treating with 75% ethanol for 30 seconds at room temperature and washed with sterile water for five times. The seeds were then treated with 15% sodium hypochlorite for 10 minutes and washed five times in sterile water. The sterilized seeds were germinated on half-strength Murashige and Skoog (MS) medium in vitro. Cotyledons from 10-day old seedlings before first true leaves emerged were used as starting explants in all the experiments. The base and tip of the cotyledons were excised and the explants were transferred with the abaxial surface in contact with the culture medium. The basic culture medium consists of MS medium with vitamins supplemented with 30 g/L sucrose and gelled with 0.8% agar, and the pH of the medium was adjusted to 5.8±0.2. Plates were maintained at a light cycle of 16/8 hours day/night, temperature of 26/24° C. day/night, and relative humidity of 70% and subcultured on the same media after 14 days. Observations were made on 7, 14, 21 and 28 days of growth. All experiments were conducted with at least three replicates of 10 explants each.
In order to analyze the effect of TAA on root regeneration, the basic media were supplemented with different concentrations of TAA (0.05 and 0.1 mg/L) and further compared with individual effect of widely used auxins (IAA, NAA, IBA, 2,4 D) at similar concentrations.

[4] = tested on: WT Arabidopsis seedlings; experiment: Root growth of WT Arabidopsis seedlings in the presence of NPA (Experiment 7); assay type: in vivo, A. thaliana; conditions: 5 μM TAA added, all NPA concentrations analyzed (0.5-8 μM)
Protocol: Arabidopsis Columbia-0 wild type (WT) was used for assessing the effect of TAA on root growth and its effects on the expression of auxin-responsive genes. Seeds of A. thaliana were surface sterilized by suspending in 70% ethanol for 1 minute, followed by treatment with 10% bleach for 20 minutes. After thorough washing with sterile distilled water, the sterilized seeds were plated onto germination medium (half-strength Murashige and Skoog basal medium with vitamins (1/2 MS) medium supplemented with 1% sucrose and 0.7% plant agar) for germination. Germination was initiated by incubating the seeds in darkness at 5° C. for 2 days, followed by transfer to a light environment at 22° C. with a photoperiod of 16-h light/8-h dark for further growth. Stock solutions of TAA were prepared in DMSO (dimethyl sulfoxide). In control treatments, DMSO was used in equal amounts as present in the greatest concentration of TAA tested.
To analyze the effect of TAA on root growth in the presence of NPA (N-1-naphthylphthalamic acid), WT Arabidopsis seedlings were germinated as described and uniform-looking 8-day-old seedlings were transferred to germination medium supplemented with different concentrations of TAA (5 and 10 μM) and different concentrations of NPA (0, 0.5, 1, 2, 4, and 8 μM). The seedlings were allowed to grow for 6 days and the plates were photographed at 24 h intervals. […]

[5] = tested on: AtIAA19 (AT3G15540); experiment: qRT-PCR of early auxin-responsive gene AtIAA19 (Experiment 9); assay type: in vivo, A. thaliana; conditions: 5 and 10 μM TAA
Protocol: as §1, §2

[6] = tested on: AtPIN1 (AT1G73590); experiment: qRT-PCR of early auxin-responsive gene AtPIN1 (Experiment 9); assay type: in vivo, A. thaliana; conditions: 10 μM TAA, after 6 hours
Protocol: as §1, §2

[7] = tested on: AtIAA29 (AT4G32280); experiment: qRT-PCR of early auxin-responsive gene AtIAA29 (Experiment 9); assay type: in vivo, A. thaliana; conditions: 5 and 10 μM TAA
Protocol: as §1, §2

[8] = tested on: tomato cotyledon explants; experiment: Shoot regeneration from tomato cotyledon explants with 1 mg/L BAP (Experiment 3); assay type: cell-based, tomato cultivar Roma VF; remark: listed apart in the source
[9] = tested on: auxin-response promoter DR5
Protocol: Artificial auxin-response promoter DR5 that contains a minimal 35S promoter fused to 9 repeats of an AuxRE with strict auxin specificity and responsive to only active auxins is used to indirectly visualize auxin in plants.
To further analyze the ability of TAA to induce an auxin response in tobacco, seedlings from transgenic tobacco plants expressing reporter gene RFP (red fluorescent protein gene) under the control of DR5 promoter were treated with different concentrations of TAA and compared the pattern of RFP fluorescence to that generated by equimolar concentration of other reported auxins over time.
Induction of an auxin response by TAA was analyzed by detecting the expression of fluorescent reporter gene under the control of auxin response elements (AuxRE) in transgenic tobacco. Plant transformation vector DR5rev::erRFP carrying DsRED reporter gene under an auxin-responsive promoter was obtained from addgene (www.addgene.org, plasmid ID. 61011). The plasmid was introduced into the Agrobacterium strain LBA4404, using freeze-thaw transformation. Transgenic plants were selected on a medium containing 25 mg/L hygromycin and then verified by PCR (polymerase chain reaction). The rooted plants were grown in soil and PCR positive tobacco seedlings were used in further experiments.

## O=C(O)Cc1ccsc1 [TAA]
[1]; 300 mg/L with 1 mg/L BAP
  time to necrosis of explants: ≤ 7 days
[1]; 300 mg/L with 1 mg/L BAP, by Day 28
  survival of explants: all explants were dead
[1]; 50.0, 100.0 and 200.0 mg/L with 1 mg/L BAP
  shoot organogenesis: did not show any shoot or root formation
[2]
  AtIAA5 expression: induction
[3]; after Day 7 (FIG. 3)
  root growth / root regeneration compared with known auxins: performs on par with most known auxins
[3]; no other hormones, within 7 days
  organogenesis from tomato cotyledon explants (root formation): rapid root formation
[4]
  number of root hairs: increased the number of root hairs
[5]
  AtIAA19 expression: induction
[6]
  AtPIN1 gene expression: nearly five-fold
[7]
  AtIAA29 expression: induction
[8]; 10.0 mg/L with 1 mg/L BAP
  number of shoots (shoot regeneration): maximum number of shoots
[8]; 0.05, 0.1, 0.5, 1.0, 2.0 and 10.0 mg/L with 1 mg/L BAP
  start of shoot formation: ~14 days
[8]; 0.05, 0.1, 0.5, 1.0, 2.0 and 10.0 mg/L with 1 mg/L BAP, by Day 28
  shoot organogenesis: many explants had well defined shoots
[9]; 48 h after TAA withdrawal
  RFP after short-term treatment and withdrawal: detectable in roots even after 48 h of TAA withdrawal
[9]; all concentrations of TAA analyzed
  time to auxin reporter gene expression in primary root tips: ≤ 30 min
[9]; by 48 h of treatment
  spread of RFP fluorescence: RFP signal was observable in secondary roots
[9]; dose dependence
  RFP signal at the root tip with increasing TAA concentrations: gradually increased
